These are literature values, as cited in patent US20200261400A1, “METHOD FOR LONG-TERM TREATMENT OF ROSACEA” (Sol-Gel Technologies Ltd., priority 2019, published 2020).

This data set deals with rosacea lesions. The following applies: BPO as the sole active agent.

With `O=C(OOC(=O)c1ccccc1)c1ccccc1` [BPO, Benzoyl peroxide], the response of lesions result is reported as “unresponsive”.
